Data from patent US20110098221A1, “INHIBITORS OF Akt ACTIVITY” (priority 2008, published 2011).

Molecular target: T1, full length AKT1 (Homo sapiens, UniProt P31749)
T1 construct: His tag (from vector pFastBacHTb) (N); made in house; host or cells: baculovirus; Sf9 / T. ni insect cells
Experiment: Full-length AKT enzyme assay (substrate phosphorylation, SPA)
Type: biochemical
Details: in at least one experimental run; pIC50 = -log(IC50), IC50 in molar units; 4 uM ATP, 10 nM activated enzyme; read-out: pIC50 against full length AKT1 (converted)

T1 sequence (P31749 whole entry): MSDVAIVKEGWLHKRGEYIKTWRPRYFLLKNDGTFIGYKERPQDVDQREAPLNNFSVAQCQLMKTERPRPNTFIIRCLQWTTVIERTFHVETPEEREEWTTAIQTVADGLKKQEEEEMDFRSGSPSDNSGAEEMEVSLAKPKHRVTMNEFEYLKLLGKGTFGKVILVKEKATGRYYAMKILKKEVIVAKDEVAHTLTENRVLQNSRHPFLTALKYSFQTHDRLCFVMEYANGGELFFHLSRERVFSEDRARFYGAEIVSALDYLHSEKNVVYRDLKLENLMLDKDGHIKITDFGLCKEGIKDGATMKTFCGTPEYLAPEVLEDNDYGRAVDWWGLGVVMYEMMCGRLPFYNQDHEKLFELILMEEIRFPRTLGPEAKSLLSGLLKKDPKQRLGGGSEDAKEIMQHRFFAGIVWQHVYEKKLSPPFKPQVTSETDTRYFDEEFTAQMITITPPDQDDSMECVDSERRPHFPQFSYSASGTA

Cn1nccc1-c1cnc(C(=O)N[C@H](CN)Cc2cccc(F)c2)s1 [Example 1, N-{(1S)-2-amino-1-[(3-fluorophenyl)methyl]ethyl}-5-(1-methyl-1H-pyrazol-5-yl)-1,3-thiazole-2-carboxamide]
IC50: 6.31 nM
